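Method: 48-hour compound exposure of cells in 96-well plates, five concentrations, linear interpolation of endpoints. TGI: concentration producing complete growth inhibition.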
Legend:
Experiment in all cases: DTP human tumour cell line panel, 48 h
[1] = test system: MCF7 breast
[2] = test system: BT-549 breast
[3] = test system: UACC-257 melanoma
[4] = test system: MDA-N
[5] = test system: LOX IMVI melanoma
[6] = test system: COLO 205 colon
[7] = test system: SK-MEL-28 melanoma
[8] = test system: HOP-62 NSCLC
[9] = test system: U251 CNS
[10] = test system: NCI-H226 lung
[11] = test system: CCRF-CEM leukemia
[12] = test system: SNB-75 CNS
[13] = test system: HL-60(TB) leukemia
[14] = test system: OVCAR-3 ovarian
[15] = test system: M14 melanoma
[16] = test system: A498 renal
[17] = test system: EKVX NSCLC
[18] = test system: IGROV1 ovarian
[19] = test system: ACHN renal
[20] = test system: 786-0 renal
[21] = test system: OVCAR-8 ovarian
[22] = test system: SK-MEL-5 melanoma
[23] = test system: KM12 colon
[24] = test system: A549 NSCLC
[25] = test system: DU-145 prostate
[26] = test system: UO-31 renal
[27] = test system: NCI-H23 lung
[28] = test system: OVCAR-4 ovarian
[29] = test system: MDA-MB-435
[30] = test system: SK-OV-3 ovarian
[31] = test system: NCI/ADR-RES ovarian
[32] = test system: HCC-2998 colon
[33] = test system: HCT-15 colon
[34] = test system: SW-620 colon
[35] = test system: HOP-92 NSCLC
[36] = test system: RXF 393 renal
[37] = test system: SF-295 CNS
[38] = test system: NCI-H460 lung
[39] = test system: SK-MEL-2 melanoma
[40] = test system: TK-10 renal
[41] = test system: MDA-MB-231 breast
[42] = test system: HT29 colon
[43] = test system: SNB-19 CNS
[44] = test system: OVCAR-5 ovarian
[45] = test system: CAKI-1 renal
[46] = test system: HCT-116 colon
[47] = test system: MOLT-4 leukemia
[48] = test system: SF-539 CNS
[49] = test system: SF-268 CNS
[50] = test system: K-562 leukemia
[51] = test system: SN12C renal
[52] = test system: NCI-H522 lung
[53] = test system: PC-3 prostate
[54] = test system: RPMI-8226 leukemia
[55] = test system: T-47D breast
[56] = test system: UACC-62 melanoma
[57] = test system: HS 578T breast
[58] = test system: MALME-3M melanoma

Measured: TGI

c1ccc(OCc2nnc(CCCCCCCCc3nnc(COc4ccccc4)o3)o2)cc1
> 100 µM: [1] | [2] | [3] | [4] | [5] | [6] | [7] | [8] | [9] | [10] | [11] | [13] | [14] | [15] | [16] | [17] | [18] | [19] | [20] | [21] | [22] | [23] | [24] | [25] | [26] | [27] | [28] | [29] | [30] | [31] | [32] | [33] | [34] | [35] | [37] | [38] | [39] | [40] | [41] | [42] | [43] | [44] | [45] | [46] | [47] | [48] | [49] | [50] | [51] | [52] | [53]
30.8 µM: [36]
83.4 µM: [12]

Cc1c(C2CCSc3ccccc3N2)sc2ccccc12 (stereo not drawn)
> 100 µM: [1] | [2] | [3] | [4] | [5] | [6] | [7] | [8] | [54] | [9] | [10] | [12] | [55] | [13] | [14] | [15] | [56] | [17] | [18] | [19] | [20] | [57] | [21] | [22] | [23] | [24] | [25] | [26] | [27] | [28] | [29] | [30] | [31] | [32] | [33] | [34] | [35] | [36] | [37] | [38] | [39] | [40] | [41] | [42] | [43] | [45] | [46] | [47] | [48] | [49] | [50] | [51] | [52] | [58] | [53]

From PubChem BioAssay (NCI)
